Source: ChEMBL document CHEMBL1201862, “PubChem BioAssay data set” (2004)
Calls of active or inactive are those of the source.

Tests used:
[1] = target: T1, Short transient receptor potential channel 4 (Mus musculus, UniProt Q9QUQ5); assay: mouse TRPC4 channel activators, dose response, cell-based, HEK293 TRPC4/mu-opioid, Fluo-4 calcium (AID 434937); assay type: functional
T1 sequence (Q9QUQ5 whole entry): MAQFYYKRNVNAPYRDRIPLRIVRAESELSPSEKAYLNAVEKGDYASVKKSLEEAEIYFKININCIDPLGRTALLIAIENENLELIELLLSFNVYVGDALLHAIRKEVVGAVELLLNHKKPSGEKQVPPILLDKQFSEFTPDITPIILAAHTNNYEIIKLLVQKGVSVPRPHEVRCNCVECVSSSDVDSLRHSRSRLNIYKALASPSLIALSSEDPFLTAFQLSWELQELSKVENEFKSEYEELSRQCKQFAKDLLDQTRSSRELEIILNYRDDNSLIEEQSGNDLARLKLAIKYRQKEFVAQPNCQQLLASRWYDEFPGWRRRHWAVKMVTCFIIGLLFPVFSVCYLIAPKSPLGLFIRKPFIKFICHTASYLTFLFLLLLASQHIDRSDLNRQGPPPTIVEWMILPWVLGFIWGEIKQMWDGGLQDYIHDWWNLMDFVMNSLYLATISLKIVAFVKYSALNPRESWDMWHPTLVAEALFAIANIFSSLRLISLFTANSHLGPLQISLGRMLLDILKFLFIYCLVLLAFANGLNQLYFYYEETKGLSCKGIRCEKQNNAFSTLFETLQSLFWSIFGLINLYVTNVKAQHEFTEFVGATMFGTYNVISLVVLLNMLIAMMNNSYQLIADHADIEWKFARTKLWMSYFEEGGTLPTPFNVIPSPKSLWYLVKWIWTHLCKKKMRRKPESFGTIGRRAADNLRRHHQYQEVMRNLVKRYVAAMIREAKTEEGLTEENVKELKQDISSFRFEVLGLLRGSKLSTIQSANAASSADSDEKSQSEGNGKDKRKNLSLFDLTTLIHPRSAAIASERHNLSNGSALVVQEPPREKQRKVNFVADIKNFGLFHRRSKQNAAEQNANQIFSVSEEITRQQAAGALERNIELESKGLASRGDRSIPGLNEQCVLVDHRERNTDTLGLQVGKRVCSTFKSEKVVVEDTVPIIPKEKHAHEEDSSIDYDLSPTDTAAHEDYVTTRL

[2] = target: Ion channel NompC (Danio rerio, UniProt Q7T1G6); assay: Fluorescence counterscreen assay for TRPML3 agonists: dose response cell-based high-throughput screening assay to identify agonists of the transient receptor potential channel N1 (TRPN1). [Related pubchem assays: 1526, 1424, 1448 ]; assay type: functional
[3] = target: Mucolipin-3 (Homo sapiens, UniProt Q8TDD5); assay: Dose response cell-based high-throughput screening assay for agonists of the transient receptor potential channel ML3 (TRPML3). [Related pubchem assays: 1526, 1424, 1448 ]; assay type: functional
[4] = system: Vero; assay: cells; assay type: functional; details: Chlorocebus sabaeus
[5] = system: Streptococcus; assay: Group A Streptococcus viability loss, dose response, counter-screen for streptokinase expression inhibitor project, luminescence, BacTiterGlo (AID 1915); assay type: functional, organism-based;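 further: potency for reduction of bacterial viability or growth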
[6] = system: Streptococcus sp. 'group A'; assay: growth inhibition of control SK(-) GAS strain, dose response, counter-screen for streptokinase expression inhibitor project, luminescence, kanamycin, BacTiterGlo, confirmation (AID 1900); assay type: functional, organism-based
[7] = target: Acyl-homoserine lactone acylase PvdQ (Pseudomonas aeruginosa (strain LESB58), UniProt Q9I194); assay: P. aeruginosa PvdQ acylase inhibitors, dose response, biochemical, fluorescence, plate reader and imaging, cherry-picks (AID 493231)
[8] = target: Polyadenylate-binding protein 1 (Homo sapiens, UniProt P11940); assay: PABP poly(A) RNA binding inhibitors, primary screen, biochemical, fluorescence polarization, uHTS (AID 2014)
[9] = target: T2, Carboxy-terminal domain RNA polymerase II polypeptide A small phosphatase 1 (Homo sapiens, UniProt Q9GZU7); assay: inhibitors of CTDSP1, concentration-response testing, biochemical assay, absorbance-based, actives from ultra-high-throughput screening (AID 540297); assay type: functional
T2 sequence (Q9GZU7 whole entry): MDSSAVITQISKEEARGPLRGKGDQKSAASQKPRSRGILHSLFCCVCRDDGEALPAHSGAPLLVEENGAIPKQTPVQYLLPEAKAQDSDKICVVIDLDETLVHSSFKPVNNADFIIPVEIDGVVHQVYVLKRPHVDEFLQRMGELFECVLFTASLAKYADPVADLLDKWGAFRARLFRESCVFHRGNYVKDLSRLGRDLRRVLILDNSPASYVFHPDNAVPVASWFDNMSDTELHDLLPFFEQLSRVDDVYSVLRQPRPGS

[10] = target: Eukaryotic translation initiation factor 4H (Homo sapiens, UniProt Q15056); assay: human eIF4H binding inhibitors, primary screen, translation initiation inhibitor project, biochemical, uHTS, fluorescence polarization (AID 2012)
[11] = target: Lysosomal acid glucosylceramidase (Homo sapiens, UniProt P04062); assay: Dose response cell-based high throughput screening assay to identify enhancers of beta-glucosidase activity. [Related pubchem assays: 784 ]; assay type: functional
[12] = target: T3, SUMO-activating enzyme (Homo sapiens, UniProt Q9UBT2); assay: inhibitors of in vitro SUMOylation cascade, primary screen, biochemical, HTRF, uHTS (AID 2006); assay type: protein-complex assay
[13] = target: Bcl-2-like protein 10 (Homo sapiens, UniProt Q9HD36); assay: displacers of TR3 peptide from Bcl-B, primary screen, selectivity assay for Bfl-1 inhibitor project, biochemical, fluorescence polarization, FITC-TR3 peptide (AID 748);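 further: fluorescence polarization from a fluorescein-labelled TR3 peptide binding purified Bcl-B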
[14] = target: T3, SUMO-activating enzyme; assay: SUMOylation inhibitor hit validation, confirmation, SUMOylation inhibitor project, biochemical, AlphaScreen (AID 2018); assay type: functional
[15] = target: T4, Coagulation factor XII (Homo sapiens, UniProt P00748); assay type: functional;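 further: activated factor XIIa alpha cleaving a fluorogenic AMC peptide substrate; inhibitor potency from loss of enzyme activity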
T4 sequence (P00748 whole entry): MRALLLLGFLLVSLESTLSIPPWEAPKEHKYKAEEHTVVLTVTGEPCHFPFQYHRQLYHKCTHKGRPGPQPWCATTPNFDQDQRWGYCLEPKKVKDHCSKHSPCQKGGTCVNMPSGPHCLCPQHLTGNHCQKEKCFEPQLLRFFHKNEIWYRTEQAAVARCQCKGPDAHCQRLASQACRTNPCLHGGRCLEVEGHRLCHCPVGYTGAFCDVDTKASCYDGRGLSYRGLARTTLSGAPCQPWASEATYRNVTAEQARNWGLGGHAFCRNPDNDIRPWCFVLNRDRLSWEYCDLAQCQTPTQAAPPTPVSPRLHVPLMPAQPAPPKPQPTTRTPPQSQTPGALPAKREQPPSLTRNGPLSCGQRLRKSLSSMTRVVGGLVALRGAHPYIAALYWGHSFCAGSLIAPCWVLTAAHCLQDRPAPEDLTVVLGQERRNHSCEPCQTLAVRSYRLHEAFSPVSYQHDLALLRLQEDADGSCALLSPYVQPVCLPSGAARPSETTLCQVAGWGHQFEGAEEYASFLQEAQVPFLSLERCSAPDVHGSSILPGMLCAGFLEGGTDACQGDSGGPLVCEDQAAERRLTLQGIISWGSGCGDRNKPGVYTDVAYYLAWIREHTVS

[16] = target: Cytochrome P450 2C9 (Homo sapiens, UniProt P11712); details: Potency
[17] = target: Cytochrome P450 3A4 (Homo sapiens, UniProt P08684); details: Potency;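 further: confirmatory qHTS run detecting inhibitors and substrates of CYP3A4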
[18] = cytotoxicity toward NIH3T3 fibroblasts, dose response, counter-screen, cell-based, ATP luminescence, mouse fibroblasts (AID 2010); assay type: functional;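 further: cells exposed to compound for about 90 hours before reading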
[19] = A Cell Based Secondary Assay To Explore Cytotoxicity of Compounds that Sensitize Mycobacterium Tuberculosis to Beta-Lactam Antibiotics.; assay type: functional
[20] = inhibitors of intracellular T. cruzi replication, confirmation, NIH3T3 host cells, beta-gal luminescence (AID 2044); assay type: functional, cell-based;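 further: intracellular parasites grown in NIH/3T3 mouse fibroblasts as host cells; luminescent beta-galactosidase reporter signal from transgenic T. cruzi replicating inside host cells; inhibitors lower the luminescence signal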
[21] = target: T5, Eukaryotic translation initiation factor 2-alpha kinase 3 (Homo sapiens, UniProt Q9NZJ5); assay: Counterscreen assay for PERK inhibitors: Dose response cell-based high throughput screening assay to measure inhibition of PERK at 6 hours. [Related pubchem assays: 1522, 1416 ]; assay type: functional
T5 sequence (Q9NZJ5 whole entry): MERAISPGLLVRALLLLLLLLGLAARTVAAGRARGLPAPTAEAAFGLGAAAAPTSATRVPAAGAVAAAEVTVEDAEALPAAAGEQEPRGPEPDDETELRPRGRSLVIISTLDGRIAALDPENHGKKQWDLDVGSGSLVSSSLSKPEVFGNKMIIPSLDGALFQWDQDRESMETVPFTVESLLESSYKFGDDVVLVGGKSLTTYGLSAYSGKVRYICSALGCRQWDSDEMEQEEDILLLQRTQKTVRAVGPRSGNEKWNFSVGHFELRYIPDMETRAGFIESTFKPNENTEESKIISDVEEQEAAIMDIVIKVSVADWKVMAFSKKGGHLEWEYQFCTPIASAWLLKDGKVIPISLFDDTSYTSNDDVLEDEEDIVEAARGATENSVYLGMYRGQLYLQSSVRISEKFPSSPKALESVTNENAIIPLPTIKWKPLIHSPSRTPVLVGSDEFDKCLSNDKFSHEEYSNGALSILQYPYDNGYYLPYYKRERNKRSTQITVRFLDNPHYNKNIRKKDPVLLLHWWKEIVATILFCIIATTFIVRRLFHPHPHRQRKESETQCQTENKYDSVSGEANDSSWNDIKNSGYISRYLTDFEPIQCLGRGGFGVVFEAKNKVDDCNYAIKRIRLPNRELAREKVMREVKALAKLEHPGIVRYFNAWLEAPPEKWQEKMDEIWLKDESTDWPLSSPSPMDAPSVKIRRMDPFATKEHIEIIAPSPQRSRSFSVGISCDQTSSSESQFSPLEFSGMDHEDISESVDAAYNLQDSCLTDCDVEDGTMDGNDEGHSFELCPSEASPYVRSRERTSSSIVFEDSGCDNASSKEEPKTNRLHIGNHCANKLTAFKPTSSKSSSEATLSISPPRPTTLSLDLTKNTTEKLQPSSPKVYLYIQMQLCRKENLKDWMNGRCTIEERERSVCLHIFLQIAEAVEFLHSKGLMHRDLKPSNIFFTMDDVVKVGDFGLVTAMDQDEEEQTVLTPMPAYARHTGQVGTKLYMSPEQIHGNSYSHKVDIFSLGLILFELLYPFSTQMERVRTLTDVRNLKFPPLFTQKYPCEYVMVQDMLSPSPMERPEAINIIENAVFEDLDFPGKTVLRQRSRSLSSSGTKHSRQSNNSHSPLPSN

[22] = target: T5, Eukaryotic translation initiation factor 2-alpha kinase 3; assay: Dose response cell-based high-throughput screening assay to measure PERK inhibition. [Related pubchem assays: 1416 ]; assay type: functional
[23] = target: T6, Heat shock factor protein 1 (Mus musculus, UniProt P38532); assay: inhibition of MG132-induced HSE-luciferase signal, confirmation, cell-based, NIH3T3, luminescence, dose retest (AID 2382); assay type: functional;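 further: NIH3T3 fibroblasts with HSF1-driven luciferase reporter stressed by proteasome inhibitor MG132; luminescence from HSF1-driven luciferase expression after 8 hours of MG132 stress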
T6 sequence (P38532 whole entry): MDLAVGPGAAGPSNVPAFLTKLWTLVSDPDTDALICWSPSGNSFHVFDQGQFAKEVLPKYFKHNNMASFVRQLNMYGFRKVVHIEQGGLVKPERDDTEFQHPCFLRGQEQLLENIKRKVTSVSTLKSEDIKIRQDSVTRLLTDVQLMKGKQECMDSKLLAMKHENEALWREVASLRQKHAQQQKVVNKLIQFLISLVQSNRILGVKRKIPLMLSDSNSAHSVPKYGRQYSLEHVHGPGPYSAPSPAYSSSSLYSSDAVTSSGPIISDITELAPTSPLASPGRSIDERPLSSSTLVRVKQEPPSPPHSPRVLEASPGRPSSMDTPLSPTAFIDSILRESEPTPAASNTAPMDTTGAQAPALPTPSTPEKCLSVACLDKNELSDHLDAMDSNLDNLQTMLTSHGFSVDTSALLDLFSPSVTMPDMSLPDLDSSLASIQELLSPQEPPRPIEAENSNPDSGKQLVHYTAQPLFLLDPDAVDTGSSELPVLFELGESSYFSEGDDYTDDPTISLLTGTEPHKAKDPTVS

Chain of Ion channel NompC (Q7T1G6 whole entry): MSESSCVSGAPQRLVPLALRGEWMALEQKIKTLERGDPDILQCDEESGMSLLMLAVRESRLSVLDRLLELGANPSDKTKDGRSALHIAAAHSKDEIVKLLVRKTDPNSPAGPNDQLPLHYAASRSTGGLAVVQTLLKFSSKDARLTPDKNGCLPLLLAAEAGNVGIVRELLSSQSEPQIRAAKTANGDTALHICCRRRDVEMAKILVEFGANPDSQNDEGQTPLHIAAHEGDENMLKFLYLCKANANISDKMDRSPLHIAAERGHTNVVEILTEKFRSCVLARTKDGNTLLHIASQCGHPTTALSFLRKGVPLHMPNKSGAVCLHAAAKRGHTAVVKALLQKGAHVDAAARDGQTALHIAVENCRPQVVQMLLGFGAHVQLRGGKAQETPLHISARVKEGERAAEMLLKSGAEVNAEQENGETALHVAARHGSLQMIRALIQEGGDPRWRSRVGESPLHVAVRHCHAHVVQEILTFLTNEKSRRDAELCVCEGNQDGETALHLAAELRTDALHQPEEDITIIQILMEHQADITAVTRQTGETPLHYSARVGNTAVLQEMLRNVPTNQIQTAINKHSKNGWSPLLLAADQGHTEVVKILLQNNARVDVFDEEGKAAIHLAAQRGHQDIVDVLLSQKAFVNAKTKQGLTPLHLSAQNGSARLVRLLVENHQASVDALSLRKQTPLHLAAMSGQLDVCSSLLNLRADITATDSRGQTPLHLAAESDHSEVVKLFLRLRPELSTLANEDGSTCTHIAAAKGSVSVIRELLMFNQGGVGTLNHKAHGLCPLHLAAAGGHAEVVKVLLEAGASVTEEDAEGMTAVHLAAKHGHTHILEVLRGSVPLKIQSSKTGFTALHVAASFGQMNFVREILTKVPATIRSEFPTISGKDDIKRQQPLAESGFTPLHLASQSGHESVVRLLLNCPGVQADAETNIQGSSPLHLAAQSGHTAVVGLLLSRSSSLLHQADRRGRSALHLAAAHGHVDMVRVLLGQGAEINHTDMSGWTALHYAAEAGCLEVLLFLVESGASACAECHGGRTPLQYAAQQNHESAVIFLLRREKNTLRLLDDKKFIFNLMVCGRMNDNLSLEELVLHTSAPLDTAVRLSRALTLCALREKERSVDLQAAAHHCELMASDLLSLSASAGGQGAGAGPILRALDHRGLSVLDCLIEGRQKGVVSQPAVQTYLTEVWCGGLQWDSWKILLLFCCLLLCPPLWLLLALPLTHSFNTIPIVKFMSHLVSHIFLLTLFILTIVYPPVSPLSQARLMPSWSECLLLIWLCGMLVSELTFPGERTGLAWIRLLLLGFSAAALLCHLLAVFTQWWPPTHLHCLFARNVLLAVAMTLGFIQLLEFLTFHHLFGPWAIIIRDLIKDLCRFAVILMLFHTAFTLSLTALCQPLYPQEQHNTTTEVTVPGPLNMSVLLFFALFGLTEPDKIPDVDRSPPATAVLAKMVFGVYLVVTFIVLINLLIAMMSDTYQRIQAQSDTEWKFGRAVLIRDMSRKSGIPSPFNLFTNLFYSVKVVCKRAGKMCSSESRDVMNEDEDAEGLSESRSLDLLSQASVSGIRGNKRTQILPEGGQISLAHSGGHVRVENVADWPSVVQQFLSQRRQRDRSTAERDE
Chain of Acyl-homoserine lactone acylase PvdQ (Q9I194 24-193 limits assumed): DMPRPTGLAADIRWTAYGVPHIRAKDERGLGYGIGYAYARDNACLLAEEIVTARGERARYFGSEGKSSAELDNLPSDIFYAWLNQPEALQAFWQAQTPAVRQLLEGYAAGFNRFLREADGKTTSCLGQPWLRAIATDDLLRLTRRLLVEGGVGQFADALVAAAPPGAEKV
Chain of Acyl-homoserine lactone acylase PvdQ (Q9I194 217-762 limits assumed): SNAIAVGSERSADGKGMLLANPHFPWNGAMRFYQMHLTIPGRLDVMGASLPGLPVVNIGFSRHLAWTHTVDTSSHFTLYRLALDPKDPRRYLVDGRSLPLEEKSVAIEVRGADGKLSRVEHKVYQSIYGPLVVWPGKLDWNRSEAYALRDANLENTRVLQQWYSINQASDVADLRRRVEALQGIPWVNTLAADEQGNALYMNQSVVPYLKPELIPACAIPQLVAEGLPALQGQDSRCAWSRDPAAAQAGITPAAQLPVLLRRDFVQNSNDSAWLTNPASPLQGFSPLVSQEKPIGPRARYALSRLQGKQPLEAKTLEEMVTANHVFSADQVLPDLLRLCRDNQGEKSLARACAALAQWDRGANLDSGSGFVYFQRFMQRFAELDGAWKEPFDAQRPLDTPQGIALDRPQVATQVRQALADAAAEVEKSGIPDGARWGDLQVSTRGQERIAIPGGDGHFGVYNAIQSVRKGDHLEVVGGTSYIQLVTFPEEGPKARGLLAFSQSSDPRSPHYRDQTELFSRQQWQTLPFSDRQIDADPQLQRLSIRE
T3 sequence (Q9UBE0 whole entry): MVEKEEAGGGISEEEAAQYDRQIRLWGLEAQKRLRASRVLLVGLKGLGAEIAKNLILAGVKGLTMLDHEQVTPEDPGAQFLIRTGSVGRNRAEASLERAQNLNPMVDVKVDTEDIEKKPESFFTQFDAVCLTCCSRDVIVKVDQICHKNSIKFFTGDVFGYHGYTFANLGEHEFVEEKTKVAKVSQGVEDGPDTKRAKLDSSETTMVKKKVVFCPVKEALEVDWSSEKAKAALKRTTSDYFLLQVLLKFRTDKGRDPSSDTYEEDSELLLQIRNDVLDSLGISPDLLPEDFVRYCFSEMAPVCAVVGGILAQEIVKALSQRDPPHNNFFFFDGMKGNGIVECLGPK
T3 sequence (Q9UBT2 whole entry): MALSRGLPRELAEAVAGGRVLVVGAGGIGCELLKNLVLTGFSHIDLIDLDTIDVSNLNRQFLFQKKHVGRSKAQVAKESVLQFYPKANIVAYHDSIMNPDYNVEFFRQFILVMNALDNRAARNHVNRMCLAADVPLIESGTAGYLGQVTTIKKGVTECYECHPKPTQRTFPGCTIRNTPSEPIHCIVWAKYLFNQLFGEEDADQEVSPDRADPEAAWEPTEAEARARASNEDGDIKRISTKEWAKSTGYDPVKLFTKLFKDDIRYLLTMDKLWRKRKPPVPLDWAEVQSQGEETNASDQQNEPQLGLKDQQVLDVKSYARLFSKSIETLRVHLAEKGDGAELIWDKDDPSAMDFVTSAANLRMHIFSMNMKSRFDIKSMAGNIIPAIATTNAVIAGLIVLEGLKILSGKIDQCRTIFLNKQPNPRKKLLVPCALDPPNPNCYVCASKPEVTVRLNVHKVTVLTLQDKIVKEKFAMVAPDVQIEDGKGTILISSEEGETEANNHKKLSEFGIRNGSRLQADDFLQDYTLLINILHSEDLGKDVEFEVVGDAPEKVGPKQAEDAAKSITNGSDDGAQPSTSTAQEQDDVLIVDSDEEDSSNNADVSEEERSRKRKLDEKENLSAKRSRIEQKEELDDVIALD
Chain of Lysosomal acid glucosylceramidase (P04062 whole entry): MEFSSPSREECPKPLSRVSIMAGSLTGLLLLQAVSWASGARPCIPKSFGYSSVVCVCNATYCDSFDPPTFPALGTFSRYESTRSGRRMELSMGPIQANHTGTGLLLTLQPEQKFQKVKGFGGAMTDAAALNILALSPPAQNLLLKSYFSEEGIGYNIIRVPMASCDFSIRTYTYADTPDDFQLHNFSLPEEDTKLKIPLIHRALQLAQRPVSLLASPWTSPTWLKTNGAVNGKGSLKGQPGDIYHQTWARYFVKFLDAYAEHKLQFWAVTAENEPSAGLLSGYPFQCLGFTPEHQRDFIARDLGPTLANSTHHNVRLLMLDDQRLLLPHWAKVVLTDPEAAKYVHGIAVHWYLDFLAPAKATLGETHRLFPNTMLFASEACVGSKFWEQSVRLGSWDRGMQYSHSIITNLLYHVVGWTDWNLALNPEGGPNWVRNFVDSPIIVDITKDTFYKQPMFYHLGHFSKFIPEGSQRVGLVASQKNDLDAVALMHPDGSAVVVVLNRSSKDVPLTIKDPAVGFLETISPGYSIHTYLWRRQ
Chain of Polyadenylate-binding protein 1 (P11940 whole entry, the tested form may be a part): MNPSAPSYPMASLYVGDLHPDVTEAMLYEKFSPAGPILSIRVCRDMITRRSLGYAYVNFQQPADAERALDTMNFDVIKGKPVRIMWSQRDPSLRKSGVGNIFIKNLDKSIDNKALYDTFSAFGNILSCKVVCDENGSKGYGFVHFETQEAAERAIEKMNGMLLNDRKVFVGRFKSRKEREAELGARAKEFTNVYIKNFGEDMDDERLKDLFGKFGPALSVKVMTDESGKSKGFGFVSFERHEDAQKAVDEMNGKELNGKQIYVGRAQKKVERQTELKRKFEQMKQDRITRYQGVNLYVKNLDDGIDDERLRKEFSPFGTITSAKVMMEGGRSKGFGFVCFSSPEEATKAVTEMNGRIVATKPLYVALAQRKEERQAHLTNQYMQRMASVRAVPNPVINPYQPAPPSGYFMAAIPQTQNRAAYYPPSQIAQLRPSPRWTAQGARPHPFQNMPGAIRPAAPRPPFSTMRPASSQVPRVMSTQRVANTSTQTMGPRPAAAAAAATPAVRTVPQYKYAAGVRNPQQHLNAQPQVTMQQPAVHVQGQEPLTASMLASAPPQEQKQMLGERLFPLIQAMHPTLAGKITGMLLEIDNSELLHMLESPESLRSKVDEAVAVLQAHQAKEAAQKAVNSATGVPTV
Chain of Bcl-2-like protein 10 (Q9HD36 whole entry): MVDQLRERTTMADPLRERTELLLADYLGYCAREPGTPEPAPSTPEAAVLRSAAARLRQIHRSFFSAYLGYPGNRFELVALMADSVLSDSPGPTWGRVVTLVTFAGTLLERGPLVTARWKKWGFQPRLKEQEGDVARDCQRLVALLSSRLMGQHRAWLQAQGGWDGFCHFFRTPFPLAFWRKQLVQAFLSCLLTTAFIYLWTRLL

COc1ccc(C(=O)NC(=S)NNC(=O)c2c(-c3ccccc3)noc2C)cc1OC
EC50 [1]: 6.68 µM (active)
EC50 [2]: 7.42 µM (active)
EC50 [3]: 7.51 µM (active)
CC50 [4]: 17.2 µM (active)
EC50 [5]: 7.7 µM (active)
EC50 [6]: 0.62 µM (active)

C[C@]12CCC[C@H](O1)[C@H]([C@@H](O)c1ccccc1)O2
AC50 [7]: 54 µM (active)

C[N+]1(CC2COC3(CCCCC3)O2)CCCCC1 (stereo unspecified)
IC50 [8]: 6.05 µM (active)
IC50 [9]: 8.39 µM (active)
IC50 [10]: > 100 µM (inactive)

CCOC(=O)C1CCN(C(=O)c2ccc(NC(=O)C3CCCO3)cc2)CC1 (stereo unspecified)
EC50 [11]: > 50 µM (not active)

CN(C)c1cccc(C(=O)OCc2cc(=O)oc3cc(O)ccc23)c1
IC50 [12]: 22.6 µM (active)
IC50 [13]: 62.4 µM (inactive)
IC50 [14]: 5.73 µM (active)

Cc1ccccc1NC(=O)Nc1cccs1
EC50 [11]: > 50 µM (not active)

Cc1ccc(S(=O)(=O)NCC(=O)OCC(=O)Nc2ncc(Cl)cc2Cl)cc1
IC50 [13]: 71.1 µM (inactive)
IC50 [15]: > 50 µM (inactive)

CN(C)c1ncc(S(=O)(=O)c2ccccc2)c(-c2ccc(Cl)cc2Cl)n1
EC50 [2]: > 29.9 µM (not active)
EC50 [3]: 1.87 µM (active)

C/C=C/OC(=O)NC(c1ccccc1)[C@]1(C(C)=O)CCCC1=O (stereo partly specified)
AC50 [16]: 3.98 µM (inconclusive)
AC50 [17]: 0.126 µM (inconclusive)

COc1ccc2c(c1)c(CC(=O)Nc1ccc(C)cc1)c(C)n2C(=O)c1ccc(Cl)cc1
EC50 [18]: > 60 µM (not active)
CC50 [19]: > 40 µM (active)
EC50 [20]: 1.04 µM (active)

O=C(N=Nc1c(O)[nH]c2ccccc12)c1cc(-c2cccs2)[nH]n1
IC50 [8]: 28.8 µM (active)
IC50 [10]: 11.5 µM (active)

CC(C)[C@H]1C(=O)N2CCC[C@@H]2[C@]2(O)O[C@@](NC(=O)[C@H]3C=C4c5cccc6[nH]cc(c56)C[C@H]4N(C)C3)(C(C)C)C(=O)N12
AC50 [16]: 25.1 µM (inconclusive)

N#CC(c1ccc(F)cc1)c1ccc(C(=O)c2ccccc2)cc1 (stereo unspecified)
AC50 [7]: > 100 µM (inactive)

Cc1ccccc1CO/N=C/c1[nH]ncc1Br
EC50 [21]: > 55.7 µM (not active)
EC50 [22]: > 55.7 µM (not active)
EC50 [23]: > 195 µM (not active)
